Tests used:
[1] = target: Cyclin-dependent kinase 1 (Homo sapiens, UniProt P06493); assay: Inhibition of CDK1 (unknown origin)
NIH3T3 [2] = assay: Antitumor activity against mouse NIH3T3 cells implanted in mouse assessed as tumor growth inhibition at 0.16 mg/kg, po administered once daily for 11 days and measured on day 12 relative to control; format: functional; conditions: NIH3T3, 288 h, time 12 day, read-out: TGI
NIH3T3 [3] = assay: Antiproliferative activity against […] NIH3T3 cells expressing MPRIP-NTRK1 assessed as cell growth inhibition incubated for 4 to 7 days by CellTiter-Glo Luminescent Cell Viability Assay; format: functional, cell-based; conditions: Mus musculus
[4] = Antitumor activity against human CUTO-3 cells xenografted in mouse assessed as tumor growth inhibition at 10 mg/kg, po administered once daily for 11 days and measured on day 12 relative to control; format: functional; conditions: CUTO-3, 288 h, time 12 day, read-out: TGI
[5] = AUC in Wistar Hannover rat at 1 mg/kg, po by LC-MS analysis; format: ADME, organism-based; parameters: dose 1 mg/kg, route po; conditions: in vivo
[6] = Half life in Wistar Hannover rat at 1 mg/kg, po by LC-MS analysis; format: ADME, organism-based; conditions: in vivo
[7] = AUC in Beagle dog at 1 mg/kg, po by LC-MS analysis; format: ADME, organism-based, Canis lupus familiaris; parameters: dose 1 mg/kg, route po; conditions: in vivo
[8] = target: Protein kinase C alpha type (Homo sapiens, UniProt P17252); assay: Inhibition of PKCalpha (unknown origin)
[9] = target: RAF proto-oncogene serine/threonine-protein kinase (Homo sapiens, UniProt P04049); assay: Inhibition of RAF1 (unknown origin)
RAF proto-oncogene serine/threonine-protein kinase, sequence (P04049 whole entry): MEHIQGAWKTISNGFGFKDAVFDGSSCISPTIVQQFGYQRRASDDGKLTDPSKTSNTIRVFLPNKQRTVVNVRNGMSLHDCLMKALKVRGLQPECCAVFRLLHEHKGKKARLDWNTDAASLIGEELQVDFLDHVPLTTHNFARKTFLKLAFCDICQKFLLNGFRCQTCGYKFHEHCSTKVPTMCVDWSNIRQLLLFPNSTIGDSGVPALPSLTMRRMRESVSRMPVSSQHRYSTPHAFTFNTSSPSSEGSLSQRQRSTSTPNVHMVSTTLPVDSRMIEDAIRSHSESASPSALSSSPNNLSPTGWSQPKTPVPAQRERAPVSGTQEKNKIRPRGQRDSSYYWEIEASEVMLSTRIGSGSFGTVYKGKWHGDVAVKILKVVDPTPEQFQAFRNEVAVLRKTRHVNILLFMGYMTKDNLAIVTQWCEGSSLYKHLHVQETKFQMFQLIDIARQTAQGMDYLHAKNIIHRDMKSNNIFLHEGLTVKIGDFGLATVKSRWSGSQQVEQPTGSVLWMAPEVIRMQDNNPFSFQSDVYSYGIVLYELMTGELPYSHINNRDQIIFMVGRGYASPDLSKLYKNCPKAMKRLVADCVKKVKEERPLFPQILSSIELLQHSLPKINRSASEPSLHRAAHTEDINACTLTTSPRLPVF

[10] = target: Hepatocyte growth factor receptor (Homo sapiens, UniProt P08581); assay: Inhibition of MET (unknown origin)
[11] = target: Serine/threonine-protein kinase Chk1 (Homo sapiens, UniProt O14757); assay: Inhibition of CHK1 (unknown origin)
[12] = Clearance in Wistar Hannover rat at 1 mg/kg, iv by LC-MS analysis; format: ADME, organism-based; conditions: in vivo
[13] = Oral bioavailability in Wistar Hannover rat at 1 mg/kg by LC-MS analysis; format: ADME, organism-based; conditions: in vivo
[14] = target: NT-3 growth factor receptor (Homo sapiens, UniProt Q16288); assay: Inhibition of TRKC (unknown origin)
NIH3T3 [15] = assay: Antitumor activity against mouse NIH3T3 cells implanted in mouse assessed as tumor growth inhibition at 2.5 mg/kg, po administered once daily for 11 days and measured on day 12 relative to control; format: functional; conditions: NIH3T3, 288 h, time 12 day, read-out: TGI
[16] = target: Proto-oncogene tyrosine-protein kinase Src (Homo sapiens, UniProt P12931); assay: Inhibition of Src (unknown origin)
[17] = Half life in Beagle dog at 1 mg/kg, iv by LC-MS analysis; format: ADME, organism-based, Canis lupus familiaris; conditions: in vivo
NIH3T3 [18] = assay: Antitumor activity against mouse NIH3T3 cells implanted in mouse assessed as tumor growth inhibition at 10 mg/kg, po administered once daily for 11 days and measured on day 12 relative to control; format: functional; conditions: NIH3T3, 288 h, time 12 day, read-out: TGI
[19] = target: Vascular endothelial growth factor receptor 2 (Homo sapiens, UniProt P35968); assay: Inhibition of KDR (unknown origin)
Vascular endothelial growth factor receptor 2, sequence (P35968 whole entry): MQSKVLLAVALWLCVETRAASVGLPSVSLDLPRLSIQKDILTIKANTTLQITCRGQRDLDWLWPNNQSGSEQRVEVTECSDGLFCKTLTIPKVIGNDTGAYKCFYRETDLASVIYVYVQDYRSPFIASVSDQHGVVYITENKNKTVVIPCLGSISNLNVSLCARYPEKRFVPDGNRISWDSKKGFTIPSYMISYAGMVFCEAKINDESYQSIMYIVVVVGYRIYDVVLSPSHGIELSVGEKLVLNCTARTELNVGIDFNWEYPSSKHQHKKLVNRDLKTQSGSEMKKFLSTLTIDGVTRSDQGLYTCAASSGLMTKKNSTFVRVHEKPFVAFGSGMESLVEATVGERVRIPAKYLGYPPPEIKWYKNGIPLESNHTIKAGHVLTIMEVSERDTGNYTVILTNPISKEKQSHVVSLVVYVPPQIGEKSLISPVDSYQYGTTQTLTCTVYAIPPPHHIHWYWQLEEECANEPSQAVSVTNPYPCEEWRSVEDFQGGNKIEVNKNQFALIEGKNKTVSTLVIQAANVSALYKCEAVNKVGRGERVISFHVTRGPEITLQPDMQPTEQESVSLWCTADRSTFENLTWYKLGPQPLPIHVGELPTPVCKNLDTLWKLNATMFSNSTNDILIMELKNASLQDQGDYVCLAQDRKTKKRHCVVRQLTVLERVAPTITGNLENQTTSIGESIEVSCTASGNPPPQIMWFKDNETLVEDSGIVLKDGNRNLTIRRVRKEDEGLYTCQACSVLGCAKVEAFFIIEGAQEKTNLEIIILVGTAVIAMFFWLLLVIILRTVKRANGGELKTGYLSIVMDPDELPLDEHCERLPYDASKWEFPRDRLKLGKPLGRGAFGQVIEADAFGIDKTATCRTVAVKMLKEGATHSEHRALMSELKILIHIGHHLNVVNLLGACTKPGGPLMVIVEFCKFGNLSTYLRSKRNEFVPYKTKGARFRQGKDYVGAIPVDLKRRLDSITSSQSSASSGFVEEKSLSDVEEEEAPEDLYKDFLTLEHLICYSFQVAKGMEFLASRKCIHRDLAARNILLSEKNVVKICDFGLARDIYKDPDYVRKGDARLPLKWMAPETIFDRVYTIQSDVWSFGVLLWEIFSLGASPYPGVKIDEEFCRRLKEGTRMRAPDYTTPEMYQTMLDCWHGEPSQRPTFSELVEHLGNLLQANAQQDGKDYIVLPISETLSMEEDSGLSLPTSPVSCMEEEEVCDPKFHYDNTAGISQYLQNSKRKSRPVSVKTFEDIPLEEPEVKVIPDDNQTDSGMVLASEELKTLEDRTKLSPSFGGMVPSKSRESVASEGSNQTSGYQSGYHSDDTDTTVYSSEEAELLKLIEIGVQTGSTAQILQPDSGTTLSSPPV

[20] = Clearance in Beagle dog at 1 mg/kg, iv by LC-MS analysis; format: ADME, organism-based, Canis lupus familiaris; conditions: in vivo
NIH3T3 [21] = assay: Antitumor activity against mouse NIH3T3 cells implanted in mouse assessed as tumor growth inhibition at 0.63 mg/kg, po administered once daily for 11 days and measured on day 12 relative to control; format: functional; conditions: NIH3T3, 288 h, time 12 day, read-out: TGI
NIH3T3 [22] = assay: Antitumor activity against mouse NIH3T3 cells implanted in mouse assessed as tumor regression at 10 mg/kg, po administered once daily for 11 days and measured on day 12 relative to control; format: functional; conditions: time 12 day
[23] = target: BDNF/NT-3 growth factors receptor (Homo sapiens, UniProt Q16620); assay: Inhibition of TRKB (unknown origin)
BDNF/NT-3 growth factors receptor, sequence (Q16620 whole entry): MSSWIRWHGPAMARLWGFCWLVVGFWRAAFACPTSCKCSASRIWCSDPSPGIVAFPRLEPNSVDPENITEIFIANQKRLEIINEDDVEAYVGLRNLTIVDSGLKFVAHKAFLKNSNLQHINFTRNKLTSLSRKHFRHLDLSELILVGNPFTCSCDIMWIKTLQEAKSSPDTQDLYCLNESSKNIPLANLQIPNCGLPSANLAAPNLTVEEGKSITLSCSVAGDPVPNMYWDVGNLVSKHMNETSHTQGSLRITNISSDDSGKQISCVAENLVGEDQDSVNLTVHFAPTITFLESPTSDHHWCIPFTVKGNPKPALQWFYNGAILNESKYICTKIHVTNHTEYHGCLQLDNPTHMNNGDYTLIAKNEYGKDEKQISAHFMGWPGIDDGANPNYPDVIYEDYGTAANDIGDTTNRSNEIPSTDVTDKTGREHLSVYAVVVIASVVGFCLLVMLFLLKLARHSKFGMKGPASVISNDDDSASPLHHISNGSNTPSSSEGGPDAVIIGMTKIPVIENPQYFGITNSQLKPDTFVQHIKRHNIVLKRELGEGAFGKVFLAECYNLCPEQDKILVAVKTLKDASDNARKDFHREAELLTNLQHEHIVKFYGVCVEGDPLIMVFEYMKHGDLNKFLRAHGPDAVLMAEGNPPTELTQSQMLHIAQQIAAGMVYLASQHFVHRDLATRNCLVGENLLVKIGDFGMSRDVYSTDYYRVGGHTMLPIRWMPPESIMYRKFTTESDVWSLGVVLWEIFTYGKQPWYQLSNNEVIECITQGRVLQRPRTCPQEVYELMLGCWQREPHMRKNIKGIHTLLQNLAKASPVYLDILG

[24] = Half life in Wistar Hannover rat at 1 mg/kg, iv by LC-MS analysis; format: ADME, organism-based; conditions: in vivo
[25] = target: Fibroblast growth factor receptor 2 (Homo sapiens, UniProt P21802); assay: Inhibition of FGFR2 (unknown origin)
[26] = Oral bioavailability in Beagle dog at 1 mg/kg by LC-MS analysis; format: ADME, organism-based, Canis lupus familiaris; conditions: in vivo
[27] = target: High affinity nerve growth factor receptor (Homo sapiens, UniProt P04629); assay: Inhibition of TRKA (unknown origin)
[28] = target: Receptor tyrosine-protein kinase erbB-2 (Homo sapiens, UniProt P04626); assay: Inhibition of HER2 (unknown origin)
Receptor tyrosine-protein kinase erbB-2, sequence (P04626 whole entry): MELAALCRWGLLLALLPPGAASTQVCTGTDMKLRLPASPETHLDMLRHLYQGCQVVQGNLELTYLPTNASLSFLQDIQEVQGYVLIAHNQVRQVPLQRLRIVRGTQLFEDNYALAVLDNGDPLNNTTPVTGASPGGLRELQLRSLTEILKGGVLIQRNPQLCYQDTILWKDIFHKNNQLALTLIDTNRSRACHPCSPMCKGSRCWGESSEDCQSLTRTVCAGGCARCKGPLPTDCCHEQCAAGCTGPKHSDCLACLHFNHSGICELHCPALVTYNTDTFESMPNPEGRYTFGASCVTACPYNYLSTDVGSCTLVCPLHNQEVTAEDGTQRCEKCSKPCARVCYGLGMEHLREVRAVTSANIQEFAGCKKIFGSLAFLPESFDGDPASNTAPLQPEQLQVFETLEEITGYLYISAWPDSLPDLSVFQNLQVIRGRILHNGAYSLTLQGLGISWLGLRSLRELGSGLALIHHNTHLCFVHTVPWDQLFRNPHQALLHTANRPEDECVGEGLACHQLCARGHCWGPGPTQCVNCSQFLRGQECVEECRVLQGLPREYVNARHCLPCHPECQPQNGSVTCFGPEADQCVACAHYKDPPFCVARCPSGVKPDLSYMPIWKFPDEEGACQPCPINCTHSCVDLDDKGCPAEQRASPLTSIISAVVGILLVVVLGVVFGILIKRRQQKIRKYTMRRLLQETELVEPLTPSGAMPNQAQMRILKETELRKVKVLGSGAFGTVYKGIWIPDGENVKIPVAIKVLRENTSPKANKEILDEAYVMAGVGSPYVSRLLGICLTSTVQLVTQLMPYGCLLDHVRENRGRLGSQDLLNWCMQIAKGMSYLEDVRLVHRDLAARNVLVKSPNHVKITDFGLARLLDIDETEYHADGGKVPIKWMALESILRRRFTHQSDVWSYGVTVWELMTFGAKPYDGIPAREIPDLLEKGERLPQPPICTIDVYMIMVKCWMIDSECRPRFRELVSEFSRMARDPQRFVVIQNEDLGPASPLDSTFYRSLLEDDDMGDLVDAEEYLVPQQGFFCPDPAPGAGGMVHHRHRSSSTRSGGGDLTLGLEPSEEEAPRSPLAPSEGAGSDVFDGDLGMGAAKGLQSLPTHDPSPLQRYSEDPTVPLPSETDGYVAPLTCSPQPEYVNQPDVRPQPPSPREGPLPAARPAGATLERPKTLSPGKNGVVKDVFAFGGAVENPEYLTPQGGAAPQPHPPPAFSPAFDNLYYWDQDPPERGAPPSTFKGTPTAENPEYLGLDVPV

[29] = target: RAC-alpha serine/threonine-protein kinase (Homo sapiens, UniProt P31749); assay: Inhibition of AKT1 (unknown origin)
[30] = target: Tyrosine-protein kinase Lck (Homo sapiens, UniProt P06239); assay: Inhibition of LCK (unknown origin)
[31] = Cmax in Beagle dog at 1 mg/kg, po by LC-MS analysis; format: ADME, organism-based, Canis lupus familiaris; parameters: dose 1 mg/kg, route po; conditions: in vivo
NIH3T3 [32] = assay: Antitumor activity against mouse NIH3T3 cells implanted in mouse assessed as tumor regression at 2.5 mg/kg, po administered once daily for 11 days and measured on day 12 relative to control; format: functional; conditions: time 12 day
[33] = Volume of distribution at steady state in Beagle dog at 1 mg/kg, iv by LC-MS analysis; format: ADME, organism-based, Canis lupus familiaris; conditions: in vivo, read-out: Vdss
[34] = target: ALK tyrosine kinase receptor (Homo sapiens, UniProt Q9UM73); assay: Inhibition of ALK (unknown origin)
[35] = target: cAMP-dependent protein kinase (PKA) (Homo sapiens, UniProt P22694+P17612+P22612); assay: Inhibition of PKA (unknown origin); format: protein assay
CYP3A4 = CYP3A4 (Homo sapiens, UniProt P08684); assay: Induction of CYP3A4 in human hepatocytes assessed as fold induction at 1 uM using testosterone as substrate preincubated with replacement of fresh medium containing compound every 24 hrs for 72 hrs followed by substrate addition and measured after 1 hr by LC-MS/MS analysis relative to control; format: ADME, cell-based, Hepatocyte; conditions: probe testosterone, time 73 hrs, read-out: FC
[36] = Volume of distribution at steady state in Wistar Hannover rat at 1 mg/kg, iv by LC-MS analysis; format: ADME, organism-based; conditions: in vivo, read-out: Vdss
[37] = target: Epidermal growth factor receptor (Homo sapiens, UniProt P00533); assay: Inhibition of EGFR (unknown origin)
[38] = Toxicity in mouse assessed as body weight loss at 10 mg/kg, po administered once daily for 11 days and measured on day 12; format: organism-based; conditions: in vivo, 288 h, time 12 day
[39] = target: Tyrosine-protein kinase JAK2 (Homo sapiens, UniProt O60674); assay: Inhibition of JAK2 (unknown origin)
[40] = Half life in Beagle dog at 1 mg/kg, po by LC-MS analysis; format: ADME, organism-based, Canis lupus familiaris; conditions: in vivo
[41] = Cmax in Wistar Hannover rat at 1 mg/kg, po by LC-MS analysis; format: ADME, organism-based; parameters: dose 1 mg/kg, route po; conditions: in vivo
Insulin receptor = Insulin receptor (Homo sapiens, UniProt P06213); assay: Inhibition of INSR (unknown origin)

Cyclin-dependent kinase 1, sequence (P06493 whole entry): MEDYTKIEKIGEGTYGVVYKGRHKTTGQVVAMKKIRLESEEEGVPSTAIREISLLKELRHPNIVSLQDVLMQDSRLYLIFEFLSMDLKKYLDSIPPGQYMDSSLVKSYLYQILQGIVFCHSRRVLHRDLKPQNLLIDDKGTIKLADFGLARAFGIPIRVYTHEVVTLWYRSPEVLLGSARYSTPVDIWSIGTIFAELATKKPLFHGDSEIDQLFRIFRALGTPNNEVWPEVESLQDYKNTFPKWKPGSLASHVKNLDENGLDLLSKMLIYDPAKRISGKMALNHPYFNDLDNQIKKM

## Cc1cc(C(=O)NC(C)(C)C)cc(C#Cc2ccc3c4c(oc3c2)C(C)(C)c2cc(NS(C)(=O)=O)ccc2C4=O)n1
[1]
  IC50: > 10 µM
NIH3T3 [2]
  inhibition in vivo at 0.16 mg/kg: 14%
NIH3T3 [3]
  IC50: 0.0084 µM
[4]
  inhibition in vivo at 10 mg/kg: 171%
[5]
  AUC: 5950 ng·h/mL
[6]
  half-life: 9.01 h
[7]
  AUC: 11000 ng·h/mL
[8]
  IC50: > 10 µM
[9]
  IC50: > 10 µM
[10]
  IC50: > 10 µM
[11]
  IC50: > 10 µM
[12]
  clearance: 1.07 mL/min/kg
[13]
  bioavailability: 38%
[14]
  IC50: 0.0028 µM
NIH3T3 [15]
  inhibition in vivo at 2.5 mg/kg: 102%
[16]
  IC50: > 10 µM
[17]
  half-life: 12.7 h
NIH3T3 [18]
  inhibition in vivo at 10 mg/kg: 105%
[19]
  IC50: > 1 µM
[20]
  clearance: 1.48 mL/min/kg
NIH3T3 [21]
  inhibition in vivo at 0.63 mg/kg: 16%
NIH3T3 [22]
  Activity: 72%
[23]
  IC50: 0.002 µM
[24]
  half-life: 7.49 h
[25]
  IC50: > 10 µM
[26]
  bioavailability: 97.5%
[27]
  IC50: 0.0012 µM
[28]
  IC50: > 10 µM
[29]
  IC50: > 10 µM
[30]
  IC50: 0.3 µM
[31]
  Cmax: 763 ng/mL
NIH3T3 [32]
  Activity: 26%
[33]
  Vd: 1.69 L/kg
[34]
  IC50: > 10 µM
[35]
  IC50: > 10 µM
CYP3A4
  fold induction at 1 h, 1 µM: 3
[36]
  Vd: 0.587 L/kg
[37]
  IC50: > 10 µM
[38]
  Activity: Non-Toxic
[39]
  IC50: > 10 µM
[40]
  half-life: 15.2 h
[41]
  Cmax: 581 ng/mL
Insulin receptor
  IC50: > 10 µM

## CC1(C)c2cc(OCCN3CCOCC3)ccc2C(=O)c2c1oc1cc(C#Cc3cc(OCC4CC4)ccn3)ccc21
[1]
  IC50: > 10 µM
[8]
  IC50: > 10 µM
[9]
  IC50: > 10 µM
[10]
  IC50: > 10 µM
[11]
  IC50: > 10 µM
[14]
  IC50: 0.0069 µM
[16]
  IC50: 2 µM
[19]
  IC50: 0.757 µM
[23]
  IC50: 0.0081 µM
[25]
  IC50: > 10 µM
[27]
  IC50: 0.0045 µM
[28]
  IC50: > 10 µM
[29]
  IC50: > 10 µM
[34]
  IC50: 2.8 µM
[35]
  IC50: > 10 µM
CYP3A4
  fold induction at 1 h, 1 µM: 6.5
[37]
  IC50: > 10 µM
[39]
  IC50: > 10 µM
Insulin receptor
  IC50: > 10 µM

Source: ChEMBL document CHEMBL5113522, “Discovery of CH7057288 as an Orally Bioavailable, Selective, and Potent pan-TRK Inhibitor” (J Med Chem, 2022)
